According to patent US20220160647A1, “TRANSDERMAL DRUG DELIVERY DEVICE/TRANSDERMAL PATCH AND OTHER APPLICATIONS OF EMULSION FORMULATION” (First Necessity, LLC, priority 2020, published 2022):

Assays:
[1] = Solubility of CBD in water, MCT oil and the liposomal polymeric emulsion; format: physicochemical
Description: (E. Samara and M. Bialer, Drug Metab. Dispos., 16 (6) 875-879 (1988). This provides a maximum weight/weight percent of approximately 0.07%.
In certain embodiments of the present teaching, hyaluronic acid may be present in the polymeric-emulsion disclosed herein. Such embodiments also include the presence of water. […] In the present case, this value was slightly exceeded in testing the liposomal polymeric emulsion set forth herein in combination with hyaluronic acid, water and MCT as the hydrophobic component. […] That said, the polymeric liposomal emulsion set forth herein retains the ability to dissolve water soluble compounds even when incorporating oil-soluble compounds at a relatively high percentage or amount.

[2] = accepted value (Samara and Bialer 1988); cited from earlier work
[3] = liposomal polymeric emulsion with hyaluronic acid, water and MCT

For `C=C(C)[C@@H]1CCC(C)=C[C@H]1c1c(O)cc(CCCCC)cc1O` [CBD, cannabidiol], which “concentration of CBD in stable solution” value ([1]; MCT oil) is on record?
Its value is 400000 µg/mL.

And the “concentration of CBD in stable solution, by weight” value ([1]; MCT oil)?
Its value is 40 % by weight.

And the “increase in CBD solubility compared to base MCT oil” value ([1]; liposomal polymeric emulsion vs base MCT oil)?
The value was 1.125 fold.

And the “increase in CBD solubility compared to water” value ([1]; liposomal polymeric emulsion vs water)?
The value was “greater than 500 fold”.

And the “concentration of CBD in solution” value [1, 3]?
Its value is 450000 µg/mL.

And the “concentration of CBD in solution, by weight” value [1, 3]?
The value was 45 % by weight.

What about the “maximum weight/weight percent of CBD in water” value ([1]; pure water, worked out from 0.7 μg per mL) of the same molecule?
Its value is “approximately 0.07%”.

What about the “solubility of CBD in pure water” value [2] of the same molecule?
The value was 0.7 μg per mL.
